Source: ChEMBL document CHEMBL3286226, “Discovery of thienopyrimidine-based FLT3 inhibitors from the structural modification of known IKKβ inhibitors” (Bioorg Med Chem Lett, 2014)
pIC50: −log10 of the molar value.

Experiments:
[1] = target: Receptor-type tyrosine-protein kinase FLT3 (Homo sapiens) (UniProt P36888); assay: Inhibition of human FLT3 kinase assessed as residual activity at 10 uM relative to control
HL-60 = assay: Growth inhibition of human HL60 cells by XTT assay; format: functional
MV4-11 = assay: Growth inhibition of human MV4-11 cells by XTT assay; format: functional
[2] = target: T1, Inhibitor of nuclear factor kappa-B kinase subunit beta (Homo sapiens, UniProt O14920)
T1 sequence (O14920 whole entry): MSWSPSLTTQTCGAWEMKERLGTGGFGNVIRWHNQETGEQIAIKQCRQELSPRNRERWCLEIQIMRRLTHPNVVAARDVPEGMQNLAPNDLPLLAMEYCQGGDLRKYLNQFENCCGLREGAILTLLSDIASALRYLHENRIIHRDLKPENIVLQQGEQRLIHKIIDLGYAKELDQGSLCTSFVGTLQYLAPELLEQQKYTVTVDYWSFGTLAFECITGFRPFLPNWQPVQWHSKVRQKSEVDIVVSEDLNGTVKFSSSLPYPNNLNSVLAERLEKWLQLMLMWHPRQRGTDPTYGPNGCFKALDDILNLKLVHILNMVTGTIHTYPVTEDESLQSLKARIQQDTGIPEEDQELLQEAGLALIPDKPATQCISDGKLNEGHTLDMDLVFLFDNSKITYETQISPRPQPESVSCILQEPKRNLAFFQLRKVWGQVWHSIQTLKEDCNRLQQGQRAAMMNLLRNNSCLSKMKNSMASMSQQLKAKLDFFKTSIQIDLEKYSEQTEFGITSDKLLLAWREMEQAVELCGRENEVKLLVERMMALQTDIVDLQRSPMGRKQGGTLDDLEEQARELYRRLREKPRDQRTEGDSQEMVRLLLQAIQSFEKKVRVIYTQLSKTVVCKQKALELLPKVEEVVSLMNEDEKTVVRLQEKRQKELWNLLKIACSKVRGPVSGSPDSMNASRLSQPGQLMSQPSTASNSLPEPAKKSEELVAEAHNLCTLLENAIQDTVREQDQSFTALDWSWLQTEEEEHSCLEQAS
Description: Inhibition of IKKbeta kinase (unknown origin) by Radioisotope system

K562 = assay: Growth inhibition of human K562 cells by XTT assay; format: functional; parameters: scale not given: the % may be the effect or the level left
RAW264.7 [3] = assay: cells; conditions: Mus musculus
Description: Antiinflammatory activity against mouse RAW264.7 cells assessed as reduction of LPS-induced NO production

[4] = test system: Receptor-type tyrosine-protein kinase FLT3 (Homo sapiens), P36888 [D835Y]; assay: Inhibition of human FLT3 kinase D835Y mutant assessed as residual activity at 10 uM relative to control
[5] = target: T2, Receptor-type tyrosine-protein kinase FLT3 (Homo sapiens, UniProt P36888)
T2 sequence (P36888 whole entry): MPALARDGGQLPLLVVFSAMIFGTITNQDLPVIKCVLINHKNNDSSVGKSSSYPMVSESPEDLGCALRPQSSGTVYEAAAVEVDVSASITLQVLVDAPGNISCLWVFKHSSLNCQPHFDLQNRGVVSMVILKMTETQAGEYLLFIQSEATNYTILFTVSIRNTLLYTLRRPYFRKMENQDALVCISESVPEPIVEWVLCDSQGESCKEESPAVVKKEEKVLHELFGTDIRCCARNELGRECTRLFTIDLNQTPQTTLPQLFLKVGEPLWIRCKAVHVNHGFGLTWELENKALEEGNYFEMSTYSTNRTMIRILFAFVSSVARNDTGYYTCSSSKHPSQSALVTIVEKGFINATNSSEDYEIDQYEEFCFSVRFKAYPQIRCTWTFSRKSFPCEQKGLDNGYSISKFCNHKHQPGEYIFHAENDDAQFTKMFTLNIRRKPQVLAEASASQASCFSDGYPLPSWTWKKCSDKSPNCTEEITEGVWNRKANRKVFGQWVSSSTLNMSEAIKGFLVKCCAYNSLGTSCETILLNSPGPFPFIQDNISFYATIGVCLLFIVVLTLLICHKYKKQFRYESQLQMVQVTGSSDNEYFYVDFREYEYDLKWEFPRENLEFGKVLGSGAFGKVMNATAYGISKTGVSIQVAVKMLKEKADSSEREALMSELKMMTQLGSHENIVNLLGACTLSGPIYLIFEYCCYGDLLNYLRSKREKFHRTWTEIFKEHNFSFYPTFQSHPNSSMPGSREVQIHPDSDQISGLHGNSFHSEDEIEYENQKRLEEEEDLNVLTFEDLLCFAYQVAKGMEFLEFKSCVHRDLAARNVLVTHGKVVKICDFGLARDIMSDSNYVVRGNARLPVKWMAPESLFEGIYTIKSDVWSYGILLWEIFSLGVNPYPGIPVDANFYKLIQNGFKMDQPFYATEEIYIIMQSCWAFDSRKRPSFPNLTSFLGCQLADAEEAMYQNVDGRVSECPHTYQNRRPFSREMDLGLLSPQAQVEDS
Description: Inhibition of FLT3 kinase (unknown origin)

[6] = target: T1, Inhibitor of nuclear factor kappa-B kinase subunit beta; remark: listed apart in the source
Description: Inhibition of IKKbeta kinase (unknown origin) by Lance ULight system

RAW264.7 [7] = assay: cells; conditions: Mus musculus; remark: listed apart in the source
Description: Antiinflammatory activity against mouse RAW264.7 cells assessed as reduction of LPS-induced TNF-alpha production

[8] = Growth inhibition of human THP1 cells by XTT assay; format: functional; conditions: THP-1

Structure (SMILES): CC1=CC(=O)N(Nc2nc(-c3cccs3)nc3scc(C)c23)C1=O
- Activity [1]: 5%
- GI50 (HL-60): 264 nM
- GI50 (MV4-11): 3 nM
- IC50 [2]: Not Active
- Activity (K562): 0.257%
- pIC50 (RAW264.7 [3]): 5.72
- Activity [4]: 2%
- pIC50 [5]: 7.19
- pIC50 [6]: < 4.30
- pIC50 (RAW264.7 [7]): 5.37
- GI50 [8]: 111 nM
